Test results from US9828630B2, “Methods of enhancing genetic diagnosis” (BioLamina AB, priority 2011, dated 2017).

Tests used:
[1] = tested on: human ES cells; assay: Cell survival assay, 24 hours (1 day) after plating from single cell suspension; assay type: cell-based; conditions: for adhesion / survival without additives compared with ROCK inhibitor treated cells: 1 day (24 hours) after plating; for survival / attachment of dissociated hES cells 24 hours (one day) after plating: single cell suspension, O3 medium
Protocol: The assay was performed as described (Extracellular Matrix Protocols, 2000). Briefly, 96-well plates were coated by extracellular matrix proteins as described above and blocked by O3 medium containing bovine serum albumin. The ES cells were plated at a cell density of 600 cell/mm^2 upon extracellular matrix-coated plates and were left to adhere for either 1 hour or 1 day at the cell incubator. Non-adherent cells were washed away, and adherent cells were fixed for 20 min by 5% glutaraldehyde, stained by 0.1% Crystal Violet.
The survival assay was performed as described for the cell adhesion assay above, except that the cells were left in the cell incubator for 24 hours. For inhibition of survival assay, the cells were kept in a medium with function blocking antibodies at the concentrations recommended by the manufacturer or pathway inhibitors at concentrations indicated in the text for 30 minutes, and then plated on the coated dishes. All the experiments were performed in quadruplicate.
Pluripotent hES cells express α1, α5, β1, β2 and γ1 laminin chains. To compare the adhesion and clonal survival of hES cells plated from single cell suspension to different coating substrata, hES cells growing as monolayers on LN-511 or as clusters on a feeder layer were trypsinized into single cell suspension in O3 medium and plated on cell culture dishes coated with Matrigel, LN-111, LN-511, LN-521 or a mixture of LN-511 and LN-521, in the absence or presence of a ROCK inhibitor (Y-27632) and analyzed after 24 hours.

[2] = tested on: OCT4; assay: FACS analysis for OCT4; assay type: cell-based, human; conditions: after several single cell suspension passages, O3 medium, FIG. 9 and 10
Protocol: OCT4 expression was analyzed as described in Ludwig, T. E. et al. Derivation of human embryonic stem cells in defined conditions. Nat. Biotechnol. 24, 185-187 (2006). Cells were run on FACSCalibur Flow Cytometer (Becton Dickinson). Data were analyzed with CellQuest software (Becton Dickinson).

[3] = tested on: hES cell lines; assay: Karyotyping; assay type: cell-based, human; conditions: HS181 12 and H1 10 passages in O3; H1 7 passages in TeSR2
Protocol: Karyotyping of the cell lines was carried out using standard Q-banding techniques. Samples of cells were treated with colcemid KaryoMAX (0.1 μg/ml; Gibco Invitrogen Corporation) for up to 4 hours, followed by dissociation with Trypsin/EDTA solution (Gibco Invitrogen Corporation). The cells were pelleted via centrifugation and re-suspended in pre-warmed 0.0375M KCl hypotonic solution and incubated for 10 minutes. Following centrifugation, the cells were resuspended in fixative (3:1 methanol:acetic acid). Metaphase spreads were prepared on glass microscope slides and G-banded by brief exposure to trypsin and stained with 4:1 Gurr's/Leishmann's stain (Sigma-Aldrich Co.). A minimum of 10 metaphase spreads were analyzed and additional 20 were counted.

[4] = tested on: ES cells; assay: Embryoid body formation; assay type: cell-based, human; conditions: cells cultured on LN-521, all three cases
Protocol: ES cells from LN-521 coated cell culture dishes were exposed to TrypLE™ Select for one minute at 37° C., 5% CO2, washes two times with a medium, broken into large pieces and cultured in suspension in low adhesion plates. The medium used for this was Knockout DMEM (GIBCO Invitrogen Corporation) supplemented with 2 mM L-glutamine, 20% fetal calf serum (GIBCO Invitrogen Corporation), 0.1 mM β-mercaptoethanol (GIBCO Invitrogen Corporation) and 1% non-essential amino acids (GIBCO Invitrogen Corporation). After 1-2 weeks in suspension, the embryoid bodies were transferred onto gelatin coated tissue cell culture 96-well plates (Sarstedt), cultured for 1-2 weeks, then fixed, stained with antibodies against markers of all three embryonic germ line layers (smooth muscle actin, MAP-2 and α-fetoprotein) and analyzed as described above for immunofluorescence.

[5] = tested on: hES cells; assay: In vivo imaging and migration assay; assay type: cell-based, human
Protocol: 24-well plates were coated by extracellular matrix proteins and blocked by O3 medium containing bovine serum albumin. The ES cells were plated at cell density of 30,000-40,000 cells/cm^2 onto extracellular matrix-coated plates and left to adhere for half an hour in a cell incubator. After that, the plate was transferred into high content imaging system Operetta (PerkinElmer) equipped with environmental control unit, which allowed to keep 37° C., 5% CO2. For two movies that were made, the brightfield images were taken once in 15 minutes during 24 hours after plating using Harmony software (PerkinElmer), exported, and analyzed using ImageJ software (NIH, the US). For migration assay the images were taken every seven minutes during 18 hours after plating. Images acquired between the fifth and seventh hours after plating were analyzed using MTrackJ plug-in (University Medical Center, Rotterdam, The Netherlands). 100 attached cells on each coating were traced and mean distances from the current to the previous point of the track were calculated. Error bars show standard error of the mean s.e.m. (n=100).

[6] = tested on: human ES cells; assay: Cell survival assay, 24 hours (1 day) after plating from single cell suspension; assay type: cell-based; conditions: 10 μM Y-27632, 40,000 cells per 1 cm^2, 24 hours

## LN-521: protein formed by joining laminin α5, β2 and γ1 chains; human recombinant, produced in HEK293 cells
[1]
  adhesion / survival without additives compared with ROCK inhibitor treated cells: similar
[1]; listed as LN-532
  adhesion / survival without additives compared with ROCK inhibitor treated cells: no ROCK inhibitor is necessary
[1]; 24 hours, no ROCK inhibitor
  survival of cells compared with LN-511: significantly higher
[1]; absence or presence of ROCK inhibitor
  cell shape 24 hours after plating on LN-521: round
[1]; exogenous bFGF removed from the O3 medium
  survival relative to Matrigel: 20 times
[1]; medium lacking all growth factors of the TeSR1 formulation (bFGF, LiCl, GABA, pipecolic acid, TGFβ)
  survival 24 hours after plating: survived
[1]; no ROCK inhibitor
  survival after 24 hours relative to LN-511: three
  survival / attachment of dissociated hES cells 24 hours (one day) after plating: did so as single cells
[1]; no ROCK inhibitor, listed as human r-laminin-521
  survival / attachment of dissociated hES cells 24 hours (one day) after plating: survived
[1]; no ROCK inhibitor, listed as laminin-521
  survival / attachment of dissociated hES cells 24 hours (one day) after plating: survived and started to proliferate
[2]
  percentage of Oct4 positive (pluripotent) cells compared with Matrigel: much higher percentage
[3]
  karyotype: normal
[4]
  embryoid body formation with markers of mesoderm, ectoderm and endoderm: retained the competence to form embryoid bodies
[5]; 24 hours imaging
  cell migration compared with Matrigel (imaging): much faster
[5]; between fifth and seventh hours after plating, FIG. 14
  motility of hES cells compared with other coatings: higher
[6]
  survival of Y-27632 treated cells compared with Matrigel: survived better
